Measurements from publication PMC11317148, “DNA-controlled protein fluorescence: Design of aptamer-split peptide hetero-modulator for GFP to respond to intracellular ATP levels” (Nucleic Acids Research, 2024).

Legend:
[1] = test system: tripartite split-GFP (ipGFP1-9); experiment: ATP-mediated in vitro reconstitution of tripartite split-GFP (ssAPC + ipGFP1-9), fluorescence time course; assay type: biochemical; details: 10 mM of each nucleotide, 12 h incubation
Experimental: We prepared a 50 μL mixture containing 1 μM aptamer-peptide complex and 20 μM ipGFP1-9 in ATP binding buffer (ATPBB; 20 mM Tris, 300 mM NaCl and 5 mM MgCl2, pH 7.4). These mixtures were transferred to a 384-well black microplate (Greiner Bio One, Kremsmünster, Austria) and challenged with various concentrations of ATP (2–10 mM). Fluorescence intensities were measured over a time course of 20 h at 5 min intervals using the extended mode of Cytation 7 (BioTek, Winooski, VT, USA) with excitation/emission wavelengths of 488/525 nm.
To assess the functionality of the aptamer-split peptide conjugate for GFP function modulation, we performed a time-course in vitro reconstitution assay with ssAPC and split GFP1-9 in the presence of varying concentrations of ATP (Figure 2A). Our group previously reported an in vitro reconstitution application using intein-mediated purified split GFP1-9 (ipGFP1-9) with improved solubility and expression levels to provide evidence of compatibility for application in this study ([28]). […] In the absence of ATP, we observed a modest background signal that could yield a false-positive result at earlier time-points (Figure 2A, dark gray trace), although this could readily be distinguished as a negative result relative to ATP-containing samples at later time-points. […] As aforementioned, according to Kang et al., the performance of this ATP aptamer has been proven by measuring EC50 values in terms of ATP-induced structure-switching with different lengths of antisense DNAs (11–18 nt) ([27]).
We also verified the specificity of our system towards ATP as a trigger molecule by assessing its response to other nucleotides such as UTP, GTP and CTP under identical conditions. To validate the low false-positive rate of self-assembly or non-specific binding, we compared the recovered fluorescence intensities after 12 h of incubation with 10 mM of each nucleotide.
We subsequently evaluated the performance of our system in the context of sustained responsiveness to environmental ATP changes. We conducted an experiment in which we measured fluorescence intensity over time while adding extra ATP in 2 mM increments every 120 min, up to a final concentration of 10 mM.
To verify that the fluorescence signal resulted from ATP-induced structure-switching, we performed experiments with the aptamer-modulated split GFP, in which we included an inhibitory strand that was fully complementary to the ATP aptamer sequence. We first performed an assembly reaction with the ssAPC, ipGFP1-9, and ATP for 12 h to generate a strong fluorescent signal, after which we added the inhibitory strand at varying molar ratios relative to the ssAPC ranging from 1:5 to 1:20 (Figure 2D).

[2] = test system: A549 human lung carcinoma cells; experiment: Live-cell imaging of the aptamer-modulated split GFP response to intracellular ATP; assay type: cell-based; details: cells treated with ssAPC/ipGFP1-9 and Oligomycin A, compared to untreated controls
Experimental: A549 human lung carcinoma cells were obtained from the Korean Cell Line Bank (Seoul, South Korea). The cells were cultured at 37°C and 5% CO2 in DMEM containing 10% FBS (v/v) and penicillin/streptomycin (Thermo Fisher Scientific, Waltham, MA, USA). A549 cells were seeded at a density of 1 × 10^4 cells/well in 96-well cell culture black plates (Greiner Bio One, Kremsmünster, Austria). After 24 h, the cells were transfected with naïve GFP, ipGFP1-9, and aptamer-peptide complexes using Lipofectamine 3000 (Thermo Fisher Scientific, Waltham, MA, USA) according to the manufacturer's instructions. The cells were imaged using the Cytation 7 Cell Imaging Multi-Mode Reader (BioTek Instruments, Winooski, VT, USA) with excitation/emission wavelengths of 488/525 nm for 24 h under cultivation conditions with 5% CO2 at 37°C. Images were analyzed using ImageJ software (https://imagej.nih.gov).
For starvation experiments, A549 cells were seeded at a density of 1 × 10^6 cells/dish in 100 mm^2 cell culture dishes. After incubation for 24 h, the medium was changed to DMEM without glucose. […] Intracellular ATP concentrations were measured using an ATP assay kit (Abcam, Cambridge, MA, USA) according to the manufacturer's instructions.
Finally, we assessed the functionality of aptamer-modulated split GFP to respond to intracellular ATP levels via the reassembly within cells. […]

| Compound | fluorescence recovery of ssAPC/ipGFP1-9 assembly by nucleotide (specificity) [1] | intensity of green fluorescence of ssAPC/ipGFP1-9 after ATP depletion [2] |
| --- | --- | --- |
| O=c1ccn([C@@H]2O[C@H](COP(=O)(O)OP(=O)(O)OP(=O)(O)O)[C@@H](O)[C@H]2O)c(=O)[nH]1 [UTP] | minimal response | – |
| Nc1nc2c(ncn2[C@@H]2O[C@H](COP(=O)(O)OP(=O)(O)OP(=O)(O)O)[C@@H](O)[C@H]2O)c(=O)[nH]1 [GTP] | minimal response | – |
| Nc1ncnc2c1ncn2[C@@H]1O[C@H](COP(=O)(O)OP(=O)(O)OP(=O)(O)O)[C@@H](O)[C@H]1O [ATP] | highly ATP-specific | – |
| Nc1ccn([C@@H]2O[C@H](COP(=O)(O)OP(=O)(O)OP(=O)(O)O)[C@@H](O)[C@H]2O)c(=O)n1 [CTP] | minimal response | – |
| Oligomycin A | – | conspicuous decrease |
